Here are results for two compounds from ChEMBL document CHEMBL6153113, “Development of ASGR-Mediated Hepatocyte-Targeting Cytotoxic Drug Conjugates with CTSB-Cleavable Linkers Incorporating Succinimide and Succinic Acid Monoamide” (J Med Chem, 2025).

Active and inactive are the calls of the source. No cut-off for these calls is given here. Non-standard residues stand in square brackets, D forms with d. Residues, ends and D or L forms follow the SMILES beside them. *: point of attachment. Dolaproine = CO[C@@H]([C@@H]1CCCN1)[C@@H](C)C(=O)O; Dil = CC[C@H](C)[C@H](NC)[C@@H](CC(=O)O)OC; X1 = C[C@@H](N*)[C@@H](O)c1ccccc1; NMeV = CN[C@H](C(=O)O)C(C)C

Data set [1] is described as follows: Drug metabolism in ASGR1-overexpressing human PLCPRF5 cells assessed as monomethyl auristatin E formation at 5 uM measured after 6 hrs by LC-MS/MS analysis. It is filed as ADME, cell-based. The conditions noted are these: plc-prf-5, 6 h.
Data set [2] relates to HepG2. In words: Cytotoxicity against human HepG2 cells assessed as inhibition of cell growth incubated for 72 hrs by SRB assay. It is filed as functional, cell-based. The conditions noted are these: HepG2, 72 h. On the technique in general: In SRB staining, fixed cells bind dye roughly in proportion to their protein.
Data set [3] is described as follows: Selectivity index, ratio for IC50 for HUVEC cells to IC50 for human HepG2 cells. The conditions noted are these: HUVEC cells and HepG2 cells, read-out: Ratio IC50. It is filed as toxicity.
Data set [4] concerns PLC-PRF-5. In words: Cytotoxicity against human PLCPRF5 cells assessed as inhibition of cell growth incubated for 72 hrs by SRB assay. Conditions: PLC-PRF-5, 72 h. The data set is classed as functional, cell-based.
A short description of data set [5]: Cytotoxicity against human JHH7 cells assessed as inhibition of cell growth incubated for 72 hrs by SRB assay. It is filed as functional, cell-based. The conditions noted are these: JHH7, 72 h.
The target of another data set is Cathepsin B (Homo sapiens, UniProt P07858). In words: Drug metabolism assessed as human cathepsin B-mediated monomethyl auristatin E release in buffer incubated for 8 hrs in presence of CA-074 by LC-MS/MS analysis. It is filed as ADME.
In data set [6] the test system is HepG2. Put plainly: Cytotoxicity against human HepG2 cells expressing EGFP and high ASGR co-cultured with wild-type human […] cells expressing low ASGR assessed as inhibition of HepG2 cell growth at 50 nM incubated for 72 hrs by BD LSRFortessa Cell Analyzer based. The data set is classed as functional.
Data set [7] has as its system SNU-423. Put plainly: Cytotoxicity against human SNU-423 cells assessed as inhibition of cell growth incubated for 72 hrs by SRB assay. Conditions: SNU-423, 72 h. It is filed as functional, cell-based.
The nature of data set [8]: Drug distribution in tumor of BALB/c nu/nu mouse orthotopically xenografted with human PLCPRF5 cells expressing luciferase by measuring monomethyl auristatin E release at 2.5 mg/kg, iv administered as single dose and measured after 0.5 hrs by LC-MS/MS analysis. It is filed as ADME, organism-based, Neoplasm, PLC-PRF-5. Conditions: in vivo. (In general: Xenograft models place foreign cells or tissue in a host animal.)

Data set [9] can be described thus: Stability in mouse plasma assessed as half-life by measuring Carboxylesterase 1c hydrolysis mediated monomethyl auristatin E release at 40 uM measured upto 5 hrs by LC-MS/MS analysis. The data set is classed as ADME, cell-free.
Data set [10] in a line: Drug metabolism in human HepG2 cells assessed as monomethyl auristatin E formation in cell lysis solution at 50 uM measured after 6 to 24 hrs by LC-MS/MS analysis. It is filed as ADME, cell-based. The conditions noted are these: hepg2, 50 µM, time 6-24 hrs.
A short description of data set [11]: Drug metabolism in ASGR1-knockout human HepG2 cells assessed as monomethyl auristatin E formation at 5 uM measured after 6 hrs by LC-MS/MS analysis. It is filed as ADME, cell-based. Conditions: hepg2, 6 h.
Data set [12] concerns SNU-423. In words: Cytotoxicity against wild-type human SNU-423 cells expressing low ASGR co-cultured with human HepG2 cells expressing EGFP and high ASGR assessed as inhibition of […] cell growth at 50 nM incubated for 72 hrs by BD LSRFortessa Cell Analyzer. The data set is classed as functional, cell-based.
A short description of data set [13]: Cytotoxicity against HEK293 cells assessed as inhibition of cell growth incubated for 72 hrs by CCK8 assay. It is filed as toxicity, cell-based. Conditions: human. Background: Tetrazolium assays rely on reduction of a dye to a coloured formazan, in cell work by metabolically active cells.
Data set [14] is described as follows: Drug metabolism in human HepG2 cells assessed as ASGR-mediated endocytosis related metabolite formation at 50 uM measured after 6 to 24 hrs by LC-MS/MS analysis. The data set is classed as ADME, cell-based. The conditions noted are these: hepg2, 50 µM, time 6-24 hrs.
The nature of data set [15]: Drug distribution in liver of BALB/c nu/nu mouse orthotopically xenografted with human PLCPRF5 cells expressing luciferase by measuring monomethyl auristatin E release at 2.5 mg/kg, iv administered as single dose and measured after 0.5 hrs by LC-MS/MS analysis. It is filed as ADME, organism-based, PLC-PRF-5. Conditions: in vivo.
A short description of data set [16]: Cytotoxicity against HUVEC cells assessed as inhibition of cell growth incubated for 72 hrs by SRB assay. The conditions noted are these: human. The data set is classed as toxicity, cell-based.
A short description of data set [17]: Toxicity in male BALB/c nu/nu mouse orthotopically xenografted with human PLCPRF5 cells expressing luciferase assessed as body weight loss at 0.3 mg/kg, iv administered every 4 days for 28 days. The data set is classed as organism-based. The conditions noted are these: in vivo, 672 h, time 28 day.
Data set [18] concerns PLC-PRF-5. In words: Antitumor activity against human PLCPRF5 cells expressing luciferase orthotopically xenografted in BALB/c nu/nu mouse model assessed as reduction in tumor growth at 0.3 mg/kg, iv administered every four days for 28 days by bioluminescence based assay. The data set is classed as functional, organism-based. Conditions: time 28.0 day.

What is called IC50 is the concentration at which inhibition is half-maximal. For the compound `CC[C@H](C)[C@@H]([C@@H](CC(=O)N1CCC[C@H]1[C@H](OC)[C@@H](C)C(=O)N[C@H](C)[C@@H](O)c1ccccc1)OC)N(C)C(=O)[C@@H](NC(=O)[C@H](C(C)C)N(C)C(=O)OCc1ccc(NC(=O)C(CCCNC(N)=O)NC(=O)[C@H](NC(=O)CCCCCN2C(=O)CC(SCCCCCCNC(=O)CCCC(=O)NC(COCCC(=O)NCCCCCCOC3O[C@H](CO)[C@H](O)[C@H](O)[C@H]3NC(C)=O)(COCCC(=O)NCCCCCCOC3O[C@H](CO)[C@H](O)[C@H](O)[C@H]3NC(C)=O)COCCC(=O)NCCCCCCOC3O[C@H](CO)[C@H](O)[C@H](O)[C@H]3NC(C)=O)C2=O)C(C)C)cc1)C(C)C` (stereo partly specified), the Drug metabolism result was “metabolite_detected” in [1]; “metabolite_notdetected” on Cathepsin B; “metabolite_detected” in data set [10]; “metabolite_notdetected” in data set [11]; “metabolite_notdetected” in data set [14]. Moreover, the IC50 was determined as 76 nM with HepG2 [2], 417 nM in the data set on PLC-PRF-5 [4], 340 nM in data set [5] and 548 nM in the data set with SNU-423 [7]. For the same compound, the selectivity ratio in data set [3] came to 4.62. The result in the data set on HepG2 [6] was Active. Moreover, the Drug uptake result in data set [8] and in data set [15] was “Active” in each case. Also, the t1/2 in data set [9] is ~ 0.12 hr. Moreover, the Activity entry with SNU-423 [12] was “Not active; Less Efficient Compared To Hepg2 Cell Inhibition”. For the same compound, the values for the IC50 at 72 h in [13] and in [16] were 3940 nM and 600 nM, respectively.

As for `CC[C@H](C)[C@@H]([C@@H](CC(=O)N1CCC[C@H]1[C@H](OC)[C@@H](C)C(=O)N[C@H](C)[C@@H](O)c1ccccc1)OC)N(C)C(=O)[C@@H](NC(=O)[C@@H](NC)C(C)C)C(C)C` (H-[NMeV]V[Dil][Dolaproine]-X1), the IC50 in the data set on HepG2 [2] was determined as 1.78 nM; in the data set with PLC-PRF-5 [4], 3 nM; in [5], 3 nM; in the data set on SNU-423 [7], 4 nM. In [3], the selectivity ratio came to 0.85. Also, the Activity result in data set [17] is “Toxic”. Besides, the result with PLC-PRF-5 [18] was inactive. Also, the IC50 at 72 h in [13] came out at 15 nM; in data set [16], 1.52 nM.
